Key:
[1] = tested on: rats with monocrotaline induced pulmonary arterial hypertension; assay: Monocrotaline rat PAH efficacy model: terminal hemodynamics, heart/lung weights; settings: for Body Weight / HR / HW/BW / Heart Weight / LV Weight / Lung Weight / MAP / Mean PAP / RV Weight / RV/BW / RV/LV + S (Fulton's Index) / Systolic PAP: Day 28 after MCT, Mean ± SEM
Procedure: The studies were conducted for hemodynamic evaluation of cinitpride in anesthetized sprague dawley rats treated with monocrotaline (“MCT”) to induce pulmonary arterial hypertension. Sildenafil was used as an internal control to compare the effects of cinitapride.
The effects of cinitapride were evaluated in rats with monocrotaline induced pulmonary arterial hypertension using sildenafil as standard care treatment. Male Sprague-Dawley rats were orally administered vehicle cinitapride (0.3 or 0.9 mg/kg total daily dose, divided into a BID regimen given every day for 28 days starting on Day 1), or sildenafil (30 mg/kg, administered twice daily) (n=10 in each group). Rats received a single injection of monocrotaline (60 mg/kg, s.c.) on Study Day 1. On the twenty-eighth day following monocrotaline dosing, the rats were anesthetized with ketamine/xylazine for terminal monitoring of pulmonary and systemic arterial pressures along with heart rate.
Vehicle (0.5% Methylcellulose+0.2% Tween 80 in deionized water, Cinitapride (0.3 or 0.9 mg/kg total daily dose; Sildenafil (30 mg/kg, administered twice daily)
(§1) Male Sprague-Dawley rats in groups 2 to 5 were administered […] of body weight of Monocrotaline in DMSO subcutaneously to induce PAH on day 1. The DMSO group (Group 1) received a single dose of DMSO subcutaneously on day 1. The vehicle group received 5 ml of vehicle every morning. The cinitapride as well as sildenafil groups were orally administered cinitapride (0.3 or 0.9 mg/kg total daily dose, divided into a BID regimen given every day for 28 days starting on Day 1), or sildenafil (30 mg/kg, administered twice daily). On the twenty-eighth day after monocrotaline dosing, the rats were anesthetized with ketamine/xylazine for terminal monitoring of pulmonary and systemic arterial pressures along with heart rate.

[2] = tested on: pulmonary arterioles of rats with monocrotaline induced pulmonary arterial hypertension; assay: Monocrotaline rat PAH model: lung histopathology (smooth muscle hypertrophy, muscularization of pulmonary arterioles); type: in vivo, Sprague-Dawley rats; settings: for mean hypertrophy score (smooth muscle hypertrophy of small arterioles): score 0 (normal) to 4 (marked), monocrotaline+vehicle 2.7
Procedure: as §1
Later the animals were sacrificed and histopathological evaluation was performed to assess pulmonary arterioles for smooth muscle hypertrophy & muscularization of pulmonary arterioles.
The elastin/eosin stained lung section were examined microscopically and histopathological findings were recorded as smooth muscle hypertrophy of small arterioles and muscularization of pulmonary arterioles. The finding were recorded as 0 (normal), 1 (minimal), 2 (mild), 3 (moderate) or 4 (marked). Scoring smooth muscle hypertrophy in small pulmonary arterioles was based on the thickness of muscular wall & extent of finding (apparent no. of arterioles affected).

[3] = Cinitapride 0.3 mg/kg per day bid, oral
[4] = Cinitapride 0.9 mg/kg per day bid, oral
[5] = Sildenafil 60 mg/kg per day bid, oral

Q: Which results are given for `CCOc1cc(N)c([N+](=O)[O-])cc1C(=O)NC1CCN(CC2CC=CCC2)CC1` (centres unmarked) [Cinitapride]?
A: systolic pulmonary arterial pressure compared to the vehicle group ([1]; 0.9 mg/kg/day cinitapride, after 28 days): reduction in systolic pulmonary arterial pressure; Body Weight [1, 3]: 0.32 ± 0.02 kg; HR [1, 3]: 299 ± 17 bpm; HW/BW [1, 3]: 3.71 ± 0.20; Heart Weight [1, 3]: 1.17 ± 0.05 g; LV Weight [1, 3]: 0.68 ± 0.04 g; Lung Weight [1, 3]: 2.36 ± 0.16 g; MAP [1, 3]: 77 ± 8 mmHg; Mean PAP [1, 3]: 43 ± 5 mmHg; RV Weight [1, 3]: 0.35 ± 0.02 g; RV/BW [1, 3]: 1.14 ± 0.10; RV/LV + S (Fulton's Index) [1, 3]: 0.53 ± 0.04; Systolic PAP [1, 3]: 55 ± 8 mmHg; Body Weight [1, 4]: 0.32 ± 0.02 kg; HR [1, 4]: 295 ± 9 bpm; HW/BW [1, 4]: 3.52 ± 0.16; Heart Weight [1, 4]: 1.10 ± 0.05 g; LV Weight [1, 4]: 0.70 ± 0.03 g; Lung Weight [1, 4]: 2.30 ± 0.20 g; MAP [1, 4]: 76 ± 2 mmHg; Mean PAP [1, 4]: 37 ± 3 mmHg; RV Weight [1, 4]: 0.31 ± 0.03 g; RV/BW [1, 4]: 1.01 ± 0.11; RV/LV + S (Fulton's Index) [1, 4]: 0.45 ± 0.04; Systolic PAP [1, 4]: 45 ± 4 mmHg; effect on right ventricular hypertrophy (RV/LV+S, Fulton's Index) compared to vehicle ([1]; cinitapride 0.3 mg/kg/day): −10%; effect on right ventricular hypertrophy (RV/LV+S, Fulton's Index) compared to vehicle ([1]; cinitapride 0.9 mg/kg/day): −25%; efficacy at reducing monocrotaline-induced pulmonary hypertension (overall mortality, pulmonary hemodynamics, right ventricular hypertrophy) versus sildenafil ([1]; cinitapride 0.9 mg/kg/day given BID, oral): superior to the positive control; decrease in hypertrophy, RV (wt) corrected by body weight ([1]; cinitapride highest dose, p<0.05): 33%; activity in controlling or reducing PAH relative to Sildenafil ([1]; rat, in vivo): comparable; heart rate or mean arterial pressure compared to vehicle ([1]; rats treated with cinitapride): No substantive differences; completely muscularized arterioles, group mean percentage ([2]; 0.45 mg/kg cinitapride twice daily following MCT, vehicle following MCT 52.1%): 38.2%; vascular smooth muscle hypertrophy compared to control group (FIG. 4) ([2]; cinitapride 0.15 mg/kg after monocrotaline induction): mild vascular smooth muscle hypertrophy; presence of smooth muscle hypertrophy in small arterioles ([2]; cinitapride 0.15 mg/kg and 0.45 mg/kg twice daily following Monocrotaline): substantially decreased; vascular smooth muscle hypertrophy compared to control group (FIG. 5) ([2]; cinitapride 0.45 mg/kg after monocrotaline induction): mild vascular smooth muscle hypertrophy; mean hypertrophy score (smooth muscle hypertrophy of small arterioles) ([2]; monocrotaline+cinitapride 0.15 bid): 1.9; mean hypertrophy score (smooth muscle hypertrophy of small arterioles) ([2]; monocrotaline+cinitapride 0.45 bid): 2.1

Q: How did the “Body Weight” value [1, 5] turn out when `CCCc1nn(C)c2c(=O)[nH]c(-c3cc(S(=O)(=O)N4CCN(C)CC4)ccc3OCC)nc12` [Sildenafil] was run?
A: The value was 0.32 ± 0.01 kg.

Q: What about the HR [1, 5] of the same compound?
A: Its HR is 278 ± 21 bpm.

Q: And the HW/BW [1, 5]?
A: The HW/BW was 3.89 ± 0.17.

Q: What about the “Heart Weight” value [1, 5] of the same compound?
A: The value was 1.24 ± 0.02 g.

Q: What about the “LV Weight” value [1, 5] of the same compound?
A: Its value is 0.74 ± 0.02 g.

Q: And the “Lung Weight” value [1, 5]?
A: Its value is 2.36 ± 0.13 g.

Q: What about the MAP [1, 5] of the same compound?
A: The MAP was 69 ± 5 mmHg.

Q: And the “Mean PAP” value [1, 5]?
A: The value was 38 ± 6 mmHg.

Q: What about the “RV Weight” value [1, 5] of the same compound?
A: The value was 0.38 ± 0.02 g.

Q: And the RV/BW [1, 5]?
A: The RV/BW was 1.19 ± 0.09.

Q: And the “RV/LV + S (Fulton's Index)” value [1, 5]?
A: The value was 0.51 ± 0.03.

Q: And the “Systolic PAP” value [1, 5]?
A: The value was 46 ± 7 mmHg.

Q: And the “hypertrophic index (RV wt corrected by body weight)” value ([1]; sildenafil)?
A: The value was “decrease”.

Reference: patent US10058545B2, “Method of treating pulmonary arterial hypertension” (Cipla Limited, priority 2016, dated 2018)
